15 molecules from US8362000B2, “Azetidinyl diamides as monoacylglycerol lipase inhibitors” (Janssen Pharmaceutica NV, priority 2009, dated 2013) can be followed below.

Numbering of substitutions follows the chain as printed. Read-outs that look alike come from different tables or passages of the source.

Test [1] has as its target T1, purified wild type MGL (wt-MGLL 6H-11-313) (Homo sapiens, UniProt Q99685).
T1 sequence (Q99685 1-303): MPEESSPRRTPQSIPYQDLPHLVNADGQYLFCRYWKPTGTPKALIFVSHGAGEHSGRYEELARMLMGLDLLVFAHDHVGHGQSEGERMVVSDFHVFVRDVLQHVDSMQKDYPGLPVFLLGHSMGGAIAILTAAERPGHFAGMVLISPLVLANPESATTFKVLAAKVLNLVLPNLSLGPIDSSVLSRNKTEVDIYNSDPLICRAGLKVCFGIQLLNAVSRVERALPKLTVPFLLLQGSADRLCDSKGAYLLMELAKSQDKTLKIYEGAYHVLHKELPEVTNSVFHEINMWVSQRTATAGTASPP

A further test addresses T2, MGL (Rattus norvegicus, UniProt Q8R431).
T2 construct: one g rat brain was homogenized using a Polytron homogenizer; from tissue; host or cells: rat brain homogenate
T2 sequence (Q8R431 1-303): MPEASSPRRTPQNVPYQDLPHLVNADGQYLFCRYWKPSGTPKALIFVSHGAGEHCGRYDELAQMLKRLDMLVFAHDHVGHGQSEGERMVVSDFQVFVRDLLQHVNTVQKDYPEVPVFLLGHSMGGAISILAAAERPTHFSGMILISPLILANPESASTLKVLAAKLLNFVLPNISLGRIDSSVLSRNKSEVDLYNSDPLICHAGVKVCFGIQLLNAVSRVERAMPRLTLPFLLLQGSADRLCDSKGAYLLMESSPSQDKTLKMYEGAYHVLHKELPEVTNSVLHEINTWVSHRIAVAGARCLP
The experiment in a line: 2-AG accumulation assay in rat brain homogenate. To be noted: rat brain homogenate, 2-AG accumulation as percent of vehicle; for 2-AG accumulation, % of vehicle control at 0.01 µM: compound 0.01 μM, read-out: Rat Brain 2AG % VehCntrl (%) @ 0.01 μM; for 2-AG accumulation, % of vehicle control at 0.1 µM: compound 0.1 μM, read-out: Rat Brain 2AG % VehCntrl (%) @ 0.1 μM; for 2-AG accumulation, % of vehicle control at 1 µM: compound 1 μM, read-out: Rat Brain 2AG % VehCntrl (%) @ 1 μM; for 2-AG accumulation, % of vehicle control at 10 µM: compound 10 μM, read-out: Rat Brain 2AG % VehCntrl (%) @ 10 μM. In kind it is biochemical.

In the next test the target is T3, mutant MGL (Homo sapiens, UniProt Q99685, L169S/L176S).
T3 sequence (Q99685 1-303 L169S/L176S): T1 sequence (Q99685 1-303) with L169S, L176S
Kind of test: MGL ThermoFluor assay - mutant. In kind it is binding. Background: DSF heats the sample and reads unfolding from a dye or from intrinsic fluorescence.

The test system of test [2] is CFA-induced paw radiant heat hypersensitivity. Kind of test: CFA-induced paw radiant heat hypersensitivity. Particulars: Rattus norvegicus, po, 30 mg/kg p.o., HPβCD, last time point 180 or 300 min. It counts as in vivo, rat.
[3] abbreviates: ThermoFluor concentration-response, read-out: MGL mutant ThermoFluor Kd.
The mark [4] stands for this setting: group mean values, read-out: CFA thermal hypersensitivity Method 1: peak % reversal.
[5] abbreviates: individual animal values, read-out: CFA thermal hypersensitivity Method 2: peak % reversal.
[6] abbreviates: ThermoFluor thermal stability binding assay, read-out: MGL mutant ThermoFluor Kd.

In general, IC50 refers to the midpoint of a concentration-inhibition curve. A lower IC50 goes with greater potency in that assay. In test [1], `Cc1nc(-c2cccc(Cl)c2)sc1C(=O)N1CC(N2CCN(C(=O)c3nccs3)CC2)C1` [Cpd 490, 1-(1-{[2-(3-Chlorophenyl)-4-methyl-1,3-thiazol-5-yl]carbonyl}azetidin-3-yl)-4-(1,3-thiazol-2-ylcarbonyl)piperazine] had an IC50 of 22.3 nM. On MGL, the 2-AG accumulation, % of vehicle control at 0.01 µM was 208%; the 2-AG accumulation, % of vehicle control at 0.1 µM was determined as 343%; the 2-AG accumulation, % of vehicle control at 1 µM came to 756%; the 2-AG accumulation, % of vehicle control at 10 µM worked out at 886%. Also, the Kd at mutant MGL (setting [3]) amounted to 0.0084 µM. The inhibition in vivo at 30 mg/kg in test [2] (setting [4]) was 18.4%. In test [2] (setting [5]), the inhibition in vivo at 30 mg/kg is 19.7%.
As for `Cc1cc(-c2ccccc2)ccc1C(=O)N1CC(N2CCN(C(=O)c3cscn3)CC2)C1` [Cpd 488, 1-{1-[(3-Methylbiphenyl-4-yl)carbonyl]azetidin-3-yl}-4-(1,3-thiazol-4-ylcarbonyl)piperazine], the IC50 in test [1] was determined as 382 nM. Besides, on MGL, the 2-AG accumulation, % of vehicle control at 0.1 µM was 219%; the 2-AG accumulation, % of vehicle control at 1 µM was 248%; the 2-AG accumulation, % of vehicle control at 10 µM is 681%. Moreover, on mutant MGL (setting [6]), the Kd was 0.321 µM. The inhibition in vivo at 30 mg/kg in test [2] (setting [4]) came out at 78%. Further, in test [2] (setting [5]), the inhibition in vivo at 30 mg/kg worked out at 85.5%.
Regarding `O=C(c1ccc2c(ccn2-c2ccc(F)cc2F)c1)N1CC(N2CCN(C(=O)c3cscn3)CC2)C1` [Cpd 1139, 1-(2,4-Difluorophenyl)-5-({3-[4-(1,3-thiazol-4-ylcarbonyl)piperazin-1-yl]azetidin-1-yl}carbonyl)-1H-indole], the IC50 in test [1] worked out at 27 nM. In addition, the 2-AG accumulation, % of vehicle control at 1 µM at MGL was found to be 654%. Also, the Kd at mutant MGL (setting [3]) was 0.017 µM. Besides, the inhibition in vivo at 30 mg/kg in test [2] (setting [4]) came to 43.8%.
On the same counts, the results for `O=C(c1ccc2c(ccn2-c2ccc(F)c(F)c2)c1)N1CC(N2CCN(C(=O)c3nccs3)CC2)C1` [Cpd 1362, 1-(3,4-Difluorophenyl)-5-({3-[4-(1,3-thiazol-2-ylcarbonyl)piperazin-1-yl]azetidin-1-yl}carbonyl)-1H-indole] are less than 5 nM, 635%, 0.001 µM and 186%.
For the molecule `Cc1cc(-c2cccc(C(F)(F)F)c2)ccc1C(=O)N1CC(N2CCN(C(=O)c3nccs3)CC2)C1` [Cpd 239, 1-(1-{[3-Methyl-3′-(trifluoromethyl)biphenyl-4-yl]carbonyl}azetidin-3-yl)-4-(1,3-thiazol-2-ylcarbonyl)piperazine], the IC50 in test [1] was 10 nM. For the same molecule, the 2-AG accumulation, % of vehicle control at 0.01 µM on MGL is 153%. In addition, the 2-AG accumulation, % of vehicle control at 0.1 µM at MGL worked out at 290%. Also, on mutant MGL (setting [6]), the Kd turned out to be 0.005 µM. The figures for the inhibition in vivo at 30 mg/kg in test [2] (setting [4]) and in test [2] (setting [5]) were 81.8% and 87.5%, respectively.
Turning to `O=C(c1ccc2c(ccn2-c2ccc(F)c(F)c2)c1)N1CC(N2CCN(C(=O)c3ccc[nH]3)CC2)C1` [Cpd 1366, 1-(3,4-Difluorophenyl)-5-({3-[4-(1H-pyrrol-2-ylcarbonyl)piperazin-1-yl]azetidin-1-yl}carbonyl)-1H-indole], the concentration for half-maximal inhibition (IC50) in test [1] is less than 5 nM. Moreover, at MGL, the 2-AG accumulation, % of vehicle control at 1 µM came to 586%. Besides, the Kd at mutant MGL (setting [3]) stood at 0.012 µM. For the same molecule, the inhibition in vivo at 30 mg/kg in test [2] (setting [4]) came to 47.1%.
In turn, `O=C(c1cscn1)N1CCN(C2CN(C(=O)c3sc4c(F)c(C(F)(F)F)ccc4c3Cl)C2)CC1` [Cpd 670] yielded a half-inhibitory concentration (IC50) in test [1] of 15 nM. In addition, at MGL, the 2-AG accumulation, % of vehicle control at 1 µM was 650%. Moreover, the Kd was found to be 0.001 µM on mutant MGL (setting [6]) and 0.001 µM at mutant MGL (ThermoFluor, compound concentration measured by qNMR, read-out: MGL mutant ThermoFluor qKd (μM) (using qNMR conc.)). For the same molecule, in test [2] (setting [4]), the inhibition in vivo at 30 mg/kg was 20.9%.
With `O=C(c1ccccc1)N1CCN(C2CN(C(=O)c3ccc4c(-c5cccc(C(F)(F)F)c5)c[nH]c4c3)C2)CC1` [Cpd 572], the IC50 in test [1] was 31 nM. In addition, the 2-AG accumulation, % of vehicle control at 1 µM at MGL is 397%. Moreover, the Kd at mutant MGL (setting [3]) came out at 0.03 µM. Further, the inhibition in vivo at 30 mg/kg in test [2] (setting [4]) was -5.1%.
As for `O=C(c1cscn1)N1CCN(C2CN(C(=O)c3ccc(-c4ccc(Cl)c(C(F)(F)F)c4)cc3Cl)C2)CC1` [Cpd 266, 1-(1-{[3,4′-Dichloro-3′-(trifluoromethyl)biphenyl-4-yl]carbonyl}azetidin-3-yl)-4-(1,3-thiazol-4-ylcarbonyl)piperazine], 49.8 nM corresponded to half-maximal inhibition in test [1] (IC50). In addition, the 2-AG accumulation, % of vehicle control at 1 µM on MGL was determined as 395%. Moreover, the Kd on mutant MGL (setting [6]) worked out at 0.016 µM. Further, the inhibition in vivo at 30 mg/kg is 50.5% in test [2] (setting [4]) and 56.1% in test [2] (setting [5]).
`Cc1cc(-c2ccc(F)c(Cl)c2)ccc1C(=O)N1CC(N2CCN(C(=O)c3cscn3)CC2)C1` [Cpd 253, 1-{1-[(3′-Chloro-4′-fluoro-3-methylbiphenyl-4-yl)carbonyl]azetidin-3-yl}-4-(1,3-thiazol-4-ylcarbonyl)piperazine] gave an IC50 in test [1] of 49.4 nM. For the same molecule, on MGL, the 2-AG accumulation, % of vehicle control at 0.1 µM came to 107%; the 2-AG accumulation, % of vehicle control at 1 µM is 319%; the 2-AG accumulation, % of vehicle control at 10 µM came to 624%. For the same molecule, the Kd on mutant MGL (setting [6]) is 0.0215 µM. The inhibition in vivo at 30 mg/kg in test [2] (setting [4]) was 64.3%. For the same molecule, the inhibition in vivo at 30 mg/kg in test [2] (setting [5]) turned out to be 87.2%.
The molecule `O=C(c1cccc(-c2ccc(F)cc2F)c1)N1CC(N2CCN(C(=O)c3nccs3)CC2)C1` [Cpd 1117, 1-{1-[(2′,4′-Difluorobiphenyl-3-yl)carbonyl]azetidin-3-yl}-4-(1,3-thiazol-2-ylcarbonyl)piperazine] had an IC50 in test [1] of 16 nM. Further, the 2-AG accumulation, % of vehicle control at 1 µM on MGL was found to be 437%. For the same molecule, the Kd at mutant MGL (setting [3]) worked out at 0.214 µM. Besides, the inhibition in vivo at 30 mg/kg in test [2] (setting [4]) came to 23.2%.
On the same counts, the results for `O=C(c1ccc2c(ccn2-c2ccc(F)c(F)c2)c1)N1CC(N2CCN(C(=O)c3cscn3)CC2)C1` [Cpd 1363, 1-(3,4-Difluorophenyl)-5-({3-[4-(1,3-thiazol-4-ylcarbonyl)piperazin-1-yl]azetidin-1-yl}carbonyl)-1H-indole] are less than 5 nM, 628%, 0.014 µM and 69.7%.
Consider `O=C(c1cc2cc(C(F)(F)F)ccc2s1)N1CC(N2CCN(C(=O)c3nccs3)CC2)C1` [Cpd 316, 1-(1,3-Thiazol-2-ylcarbonyl)-4-(1-{[5-(trifluoromethyl)-1-benzothiophen-2-yl]carbonyl}azetidin-3-yl)piperazine], for which the IC50 in test [1] is less than 5 nM. Also, on MGL, the 2-AG accumulation, % of vehicle control at 0.01 µM was 243%; the 2-AG accumulation, % of vehicle control at 0.1 µM was found to be 265%; the 2-AG accumulation, % of vehicle control at 1 µM stood at 760%; the 2-AG accumulation, % of vehicle control at 10 µM was 694%. Besides, the Kd on mutant MGL (setting [6]) amounted to 0.0165 µM. The inhibition in vivo at 30 mg/kg in test [2] (setting [4]) was 69.3%. Besides, in test [2] (setting [5]), the inhibition in vivo at 30 mg/kg was 70.8%.
The molecule `COc1cc(C(=O)N2CC(N3CCN(C(=O)c4cscn4)CC3)C2)ccc1-c1ccc(F)c(Cl)c1` [Cpd 261, 1-{1-[(3′-Chloro-4′-fluoro-2-methoxybiphenyl-4-yl)carbonyl]azetidin-3-yl}-4-(1,3-thiazol-4-ylcarbonyl)piperazine] returned an IC50 in test [1] of 8.4 nM. Moreover, at MGL, the 2-AG accumulation, % of vehicle control at 0.1 µM was determined as 148%; the 2-AG accumulation, % of vehicle control at 1 µM was determined as 525%; the 2-AG accumulation, % of vehicle control at 10 µM was determined as 856%. Further, the Kd on mutant MGL (setting [6]) amounted to 0.0091 µM. For the same molecule, the inhibition in vivo at 30 mg/kg in test [2] (setting [4]) came out at 26.4%. In addition, the inhibition in vivo at 30 mg/kg in test [2] (setting [5]) amounted to 27.5%.
With `O=C(c1nccs1)N1CCN(C2CN(C(=O)c3sc4cc(C(F)(F)F)ccc4c3Cl)C2)CC1` [Cpd 324, 1-(1-{[3-Chloro-6-(trifluoromethyl)-1-benzothiophen-2-yl]carbon-yl}azetidin-3-yl)-4-(1,3-thiazol-2-ylcarbonyl)piperazine], in test [1], the IC50 was less than 5 nM. In addition, the 2-AG accumulation, % of vehicle control at 0.1 µM at MGL was 941%. Besides, the Kd on mutant MGL (setting [6]) was 0.0004 µM. In addition, the inhibition in vivo at 30 mg/kg stood at 48.7% in test [2] (setting [4]) and 55.8% in test [2] (setting [5]).
